{"source": "patent US12193465B2", "about": "“Materials and methods for extending shelf-life of foods” (JP Laboratories, Inc., priority 2021, dated 2025)", "key": {"[1]": {"system": "grains, legumes, potatoes, garlic", "experiment": "Germination / sprouting of grains, legumes and tubers", "text": "These bags were sealed with a heat sealer.\n(§1) The assembly was shaken periodically."}, "[2]": {"system": "parval, methi, coriander, radish, guar", "experiment": "Shriveling / wilting / dehydration / becoming wet of produce", "text": "(§2) Most of the foods changed color or texture.\nas §1"}, "[3]": {"experiment": "Gas formation (gassed dome) of fresh juice", "details": "Example 65, Orange juice, 0.02 g, control 4 days", "text": "as §2"}}}
{"smiles": "C=CCN=C=S", "note": "[AI, allyl isothiocyanate]", "values": [{"measurement": "Spoilage Time - Sample", "setting": "[1]; Example 66, Germination, Mixed Legumes (T), 0.10 g, control 3 days", "result": 9, "unit": "days"}, {"measurement": "Spoilage Time - Sample", "setting": "[1]; Example 67, Germination, Mixed Legumes, Sachet, control 4 days", "result": 21, "unit": "days"}, {"measurement": "Spoilage Time - Sample", "setting": "[1]; Example 67, Germination, Mixed Legumes, Sachet, control 4 days, listed as allyl isothiocyanate", "result": "> 21", "unit": "days"}, {"measurement": "Spoilage Time - Sample", "setting": "[1]; Example 68, Germination, Mixed Legumes, Sachet, control 3 days", "result": 9, "unit": "days"}, {"measurement": "Spoilage Time - Sample", "setting": "[1]; Example 69, Germination, Soft White Wheat, Sachet, control 4 days", "result": 21, "unit": "days"}, {"measurement": "Spoilage Time - Sample", "setting": "[1]; Example 70, Germination, Soft White Wheat, 5 ml of 10% allyl isothiocyanate solution in water, control 4 days", "result": 21, "unit": "days"}, {"measurement": "Spoilage Time - Sample", "setting": "[1]; Example 71, Germination, Unshelled Rice, Sachet, control 3 days", "result": 15, "unit": "days"}, {"measurement": "Spoilage Time - Sample", "setting": "[1]; Example 79, Sprouting, Red Potatoes, 2 hrs P-E, control 9 days", "result": 16, "unit": "days"}, {"measurement": "Spoilage Time - Sample", "setting": "[1]; Example 80, Sprouting, Mix of red, purple and yellow potatoes, 4 hrs P-E, control 22 days", "result": 46, "unit": "days"}, {"measurement": "Spoilage Time - Sample", "setting": "[1]; Example 81, Sprouting, Fingerling Potatoes, 2 hrs P-E, control 37 days", "result": 59, "unit": "days"}, {"measurement": "Spoilage Time - Sample", "setting": "[1]; Example 82, Sprouting, Sprouted Garlic, 0.5 hr P-E, control 4 days", "result": "4+ days"}, {"measurement": "Spoilage Time - Sample", "setting": "[1]; Example 82, Sprouting, Sprouted Garlic, 0.5 hr P-E, control 4 days, listed as allyl isothiocyanate", "result": "no further growth of sprouts"}, {"measurement": "Germination and/or fungus", "setting": "[1]; flooded shelled peanuts, a drop in flooded water, control 5 days", "result": "> 8", "unit": "days"}, {"measurement": "Sprouting", "setting": "[1]; various types of potatoes, vapor or sachet, Examples 79-81", "result": "either prevented or significantly delayed"}, {"measurement": "Spoilage Time - Sample", "setting": "[2]; Example 75, Shriveling, Parval, 0.5 hr P-E, control 4 days", "result": "4+ days"}, {"measurement": "Spoilage Time - Sample", "setting": "[2]; Example 76, Shriveling, Parval, 1 hr P-E, control 4 days", "result": "4+ days"}, {"measurement": "Spoilage Time - Sample", "setting": "[2]; Example 83, Wet, Methi (Indian fenugreek), 1 hr P-E, control 9 days", "result": 30, "unit": "days"}, {"measurement": "Spoilage Time - Sample", "setting": "[2]; Example 83, Wet, Methi (Indian fenugreek), 1 hr P-E, control 9 days, listed as allyl isothiocyanate", "result": "remained fresh and green"}, {"measurement": "Crispness of treated guar", "setting": "[2]; guar exposed to vapor, lost green color slightly", "result": "remained crisp"}, {"measurement": "Spoilage Time - Sample", "setting": "[3]", "result": 12, "unit": "days"}]}
